Source: article PMC9170688, “Gametocyte-specific and all-blood-stage transmission-blocking chemotypes discovered from high throughput screening on Plasmodium falciparum gametocytes” (Communications Biology, 2022)
“And” between values parts separate entries of the source, which are not always exact repeats. Identical values can stand only once.

Key:
[1] = system: P. falciparum NF54 hsp86-PpyRE13 gametocytes; assay: P. falciparum gametocyte luminescence assay (PfLuc), line NF54 hsp86-PpyRE13; assay type: cell-based, Plasmodium falciparum; conditions: gametocytes, line NF54 HSP86; read-out: Pf Gametocytes NF54 HSP86 (IC50 nM)
Experimental: (§1) To exclude false positive compounds that may interfere with the click beetle CBG99 luciferase signal and to confirm the activity on gametocytes produced by other P. falciparum lines, we tested the above 638 compounds at a single concentration of 10 µM on gametocytes from two NF54 strain derived lines: pfs16-GFP-PyLUC (Photinus pyralis luciferase under the same pfs16 promoter)[14],[16],[27] and hsp86-PpyRE13 that was generated for this work to express the mutated Photinus pyralis PpyRE13 luciferase in gametocytes under the promoter of the pfhsp86 gene.
(§2) With the selected 84 compounds, the subsequent step aimed at determining the gametocyte inhibition potency and the parasite stage selectivity between the gametocytes and the asexual stages in the NF54 hsp86-PpyRE13. […] Similar data were obtained considering the gametocyte IC50 values measured in the NF54 pfs16-GFP-PyLUC strain (see Supplementary Data 2).
(§3) Parasite gametocyte luminescence assays were performed in 384-well plates (Thermo, 4332, USA) by infected red blood cells seeded at 40 µL/well at a haematocrit of 0.625% for the strain 3D7elo1-pfs16-CBG99, 1.875% for both strains NF54 hsp86-PpyRE13 and NF54 pfs16-GFP-PyLUC. Assay were performed in the medium: 10.44 g/L RPMI 1640 Medium (Gibco, 51800043), 5.95 g/L HEPES (Sigma, H4034), 50 mg/L Hypoxantine (Sigma, 56700), 10% heat inactivated human serum, 10 ml of Neomycin solution (Sigma, N1142) and 2.1 g/L NaHCO3 (Sigma, 144-55-8). Compounds or DMSO as control were pre dispensed on plates, from 10 mM DMSO stock solutions, via an acoustic droplet ejection device (ATS-100, EDC Biosystems) to achieve the final desired concentration. Assay plates were incubated for 48 h at 37 °C in 4% CO2, 3% O2, and 93% N2 modified atmosphere. After incubation, 20 µL/well of a solution of luciferin (Regis, 1-360242-200) potassium/sodium salt (300 µg/ml) are added to the assay plates and read at suitable luminescence detection after 1 min incubation at room temperature. The whole HTS was performed in 7 rounds of 30–80 plates each in two months’ time.

[2] = system: P. falciparum NF54 pfs16-GFP-PyLUC gametocytes; assay: P. falciparum gametocyte luminescence assay (PfLuc), line NF54 pfs16-GFP-PyLUC; assay type: cell-based, Plasmodium falciparum; conditions: gametocytes, line NF54 pfs16; read-out: Pf Gametocytes NF54 pfs16 (IC50 nM)
Experimental: as §1, §2, §3

[3] = system: P. falciparum NF54 hsp86-PpyRE13 asexual stages; assay: P. falciparum asexual stage assay (pLDH); assay type: cell-based, Plasmodium falciparum; conditions: asexual stages, line NF54 Hsp86 PpYRE13; read-out: NF54 Hsp86 PpYRE13 (IC50 nM)
Experimental: as §2
Parasite proliferation assays were performed in 384-well plates (Thermo, 4332, USA) with a starting parasitemia of 0.25% at a haematocrit of 2% by quantification of parasite lactate dehydrogenase (pLDH). Compounds or DMSO as control were pre dispensed on plates, from 10 mM DMSO stock solutions, via an acoustic droplet ejection device (ATS-100, EDC Biosystems) to achieve de final desired concentration. Assay plates were incubated for 72 h at 37 °C in 4% CO2, 3% O2, and 93% N2 modified atmosphere. After the incubation period, plates are frozen at −80 °C for two h and then thawed at room temperature for 2 h. Then, 50 µL of the developer solution (70 mM Tris-HCl pH 8.0, 0.5% Tween-20, 100 mM Lithium L-Lactate, 125 µM nitro blue tetrazolium, 2 U/ml diaphorase and 100 µM 3-Acetylpyridine Adenine Dinucleotide) are added to each well and let to react for 10 min. Absorbance was then read at 650 nm by a suitable spectrophotometer.

HeLa cells = assay: HeLa cell proliferation assay (CellTiter Glo); assay type: cell-based, human
Experimental: In addition, we tested the 84 compounds in a dose-response fashion on HeLa cells to quantitatively monitor their cytotoxicity potential.
HeLa cells (CCL-2, ATCC, USA) were cultured in DMEM without phenol red (Thermo, 11880, USA) + 10% FBS + 1X PenStrep + 1X Gln. They were plated in a 384-well plate (Thermo, 4334-11, USA) to a density of 2000 cells per well and let recover for 4 h at 37 °C, 5% CO2 in a humidified atmosphere. After the recovery, compounds were transferred to assay plates as per compound preparation method. Assay plates were then incubated at 37 °C, 5% CO2 in a humidified atmosphere for 72 h. Cell viability was measured by the CellTiTer Glo (Promega, G8080, USA) as per manufacturer instruction.

[4] = system: P. falciparum NF54 male gametocytes (stage V); assay: Male gamete exflagellation assay; assay type: cell-based, Plasmodium falciparum; conditions: for Inhibition of male exflagellation at 1 µM: 48 h
Experimental: The above selected 30 compounds were subjected to a phenotypic male gamete exflagellation assay. This assay measures the viability of male gametocytes by quantitating the final step of maturation into motile microgametes in vitro[24]. This process naturally occurs in the mosquito gut within minutes from the blood meal. The acquisition of time lapse videos of gamete motility in bright field microscopy and the subsequent analysis to count exflagellation centres were performed in an automated HTS format in 384-well plates. The compounds were tested in two independent biological replicates at the concentration of 1 µM. […] The results of this study led to the identification of 16 compounds with anti-exflagellation activity (Fig. 4). […] The standard membrane feeding assay (SMFA) is used to measure the parasite transmission through mosquito. In this assay, mature stage V gametocytes of the P. falciparum strain NF54-hsp70-luc were treated with 1 and 10 µM of the nine selected compounds for 24 h, added with human red blood cells and serum to achieve a haematocrit of 50% and then fed to mosquitoes. Luminescence was analyzed in […] 8 days post-feeding.
Asexual parasites of the NF54 line, kindly obtained from Elena Levashina’s laboratory (Max Plank Institute for Infection Biology, Berlin, Germany), were seeded at 1% total parasitemia and grown for 16 days changing medium every day until development of stage V gametocytes (about 1–2% of stage V gametocytemia). 100 µl of gametocyte culture was seeded in each well of a 96 well-plate and 100 µl of 2× concentration of compounds or DMSO as control were added to each well to achieve the desired final concentration. Assay plates were incubated for 48 h at 37 °C in 4% CO2, 3% O2, and 93% N2 modified atmosphere. After the incubation period, 100 µl of medium were removed from each well and the other 100 µl were transferred to a black imaging 96 well plate (ibidi) containing 100 µl of complete medium supplemented with 40 µM of xanthurenic acid. After 15 min, exflagellation events were captured by three ten-second videos each well with an Olympus IX83 inverted microscope with a UPLSAPO 10× N.A. 0.75 objective (Olympus, Japan), equipped with a Hamamatsu ORCA-Flash 4.0 V3 camera. Each video was analyzed using the Icy bio-image analysis software (http://icy.bioimageanalysis.org/) to count the number of exflagellation events.

[5] = system: P. falciparum 3D7elo1-pfs16-CBG99 gametocytes; assay: P. falciparum gametocyte luminescence assay (PfLuc), primary HTS line 3D7elo1-pfs16-CBG99; assay type: cell-based, Plasmodium falciparum; conditions: 10 µM MB, Rep1-Rep2
From the text: In this line, the CBG99 luciferase-coding region (from the click beetle Pyrophorus plagiophthalamus) is integrated into the parasite genome and expressed under the control of the pfs16 gametocyte-specific promoter.
Obtaining an accurate gametocyte synchronization with minimal parasite handling is of paramount importance to establish a robust and reliable HTS assay. To this aim, the timing of addition of N-acetyl glucosamine (NAG), used to clear residual asexual stages after appearance of stage I gametocytes, was optimized. […] Using these cultures, different haematocrit percentages (0.625, 1.25 and 2.5%) and two incubation times (48- and 72 h) were tested to identify the optimal luciferase readout.
A collection of 119.059 compounds of the CNCCS library was tested on gametocytes of the 3D7elo1-pfs16-CBG99 strain at 10 µM using the protocol described above. […]
as §3

[6] = system: P. falciparum NF54 male gametocytes (stage V); assay: Male gamete exflagellation assay; assay type: cell-based, Plasmodium falciparum; conditions: 48 h
[7] = system: P. falciparum strain NF54-hsp70-luc stage V gametocytes fed to Anopheles stephensi mosquitoes; assay: whole plant or invertebrate; assay type: in vivo, Plasmodium falciparum; conditions: for transmission blocking in SMFA: 24 h treatment; for luminescence signal of individual mosquitoes (SMFA, Fig. 5): one value per mosquito
Experimental: The above selected 30 compounds were subjected to a phenotypic male gamete exflagellation assay. This assay measures the viability of male gametocytes by quantitating the final step of maturation into motile microgametes in vitro[24]. This process naturally occurs in the mosquito gut within minutes from the blood meal. The acquisition of time lapse videos of gamete motility in bright field microscopy and the subsequent analysis to count exflagellation centres were performed in an automated HTS format in 384-well plates. The compounds were tested in two independent biological replicates at the concentration of 1 µM. […] The standard membrane feeding assay (SMFA) is used to measure the parasite transmission through mosquito. In this assay, mature stage V gametocytes of the P. falciparum strain NF54-hsp70-luc were treated with 1 and 10 µM of the nine selected compounds for 24 h, added with human red blood cells and serum to achieve a haematocrit of 50% and then fed to mosquitoes. Luminescence was analyzed in the mosquito salivary glands 8 days post-feeding.
SMFA was performed commercially by TropiQ Health Sciences (Nijmegen, The Netherlands). Test samples were diluted in DMSO and then in RPMI medium (Gibco, 51800043) to achieve a final DMSO concentration of 0.1%. Diluted samples were combined with stage V gametocytes from P. falciparum strain NF54-hsp70-luc and incubated for 24 h. Subsequently, human red blood cells and human serum with the sample were added to achieve a haematocrit of 50%. The blood meal was fed to two-day old Anopheles stephensi mosquitoes that were starved the night prior to the blood meal. […] Mosquito infection was analyzed 8 days post-feeding by luminescence measurements of whole mosquitoes as described previously. For each feeder, luminescence intensity was analyzed in 15–24 mosquitoes per feeder (N = 1, n = 15–24). Luminescence background levels were determined from 15–24 uninfected mosquitoes. Controls: vehicle (0.1% DMSO) in duplicate.

O=S(=O)(NCC1(O)CCOc2ccccc21)c1ccc(Br)s1 (stereo not drawn) [Compound 84, reference compound]
IC50 [1]: 29600 nM
IC50 [2]: 11300 nM
IC50 [3]: > 51200 nM
IC50 (HeLa cells): > 32000 nM
Inhibition of male exflagellation at 1 µM ([4]; Replicate 1): 1.9
Inhibition of male exflagellation at 1 µM ([4]; Replicate 2): 0
Exflagellation @ 1 uM (% of DMSO) 1 ([4]; 1 uM, replicate 1): 1.90 % of DMSO
Exflagellation @ 1 uM (% of DMSO) 2 ([4]; 1 uM, replicate 2): 0.00 % of DMSO

CN(C)c1ccc2nc3ccc(=[N+](C)C)cc-3sc2c1 [MB, methylene blue]
Luminescence counts ([5]; 48 h, hematocrit 0.625%): 88 RLU and 72 RLU
Luminescence counts ([5]; 48 h, hematocrit 2.5%): 208 RLU and 224 RLU
Luminescence counts ([5]; 72 h, hematocrit 0.625%): 64 RLU and 56 RLU
Luminescence counts ([5]; 72 h, hematocrit 1.25%): 48 RLU and 56 RLU
Luminescence counts ([5]; 72 h, hematocrit 2.5%): 80 RLU and 88 RLU
Inhibition of male exflagellation at 1 µM ([4]; Replicate 1): 2.985
Inhibition of male exflagellation at 1 µM ([4]; Replicate 2): 1.163
Inhibition of male exflagellation at 1 µM ([6]; Replicate 3): 5.8
Inhibition of male exflagellation at 1 µM ([6]; Replicate 4): 7.7

CS(=O)(=O)c1ccc(-c2cnc(N)c(-c3ccc(C(F)(F)F)nc3)c2)cc1 [MMV0048, reference compound]
transmission blocking in SMFA ([7]; 1 µM): abolished the parasite transmission
transmission blocking in SMFA ([7]; 10 µM): abolished the parasite transmission

CS(=O)(=O)c1ccc(-c2cnc(N)c(-c3ccc(C(F)(F)F)nc3)c2)cc1 [MMV-048]
luminescence signal of individual mosquitoes (SMFA, Fig. 5) ([7]; compound at 1 µM): 6 and 9 and 5 and 28 and 32 and 4 and 3 and 8 and 58 and 2 and 20 and 83
luminescence signal of individual mosquitoes (SMFA, Fig. 5) ([7]; compound at 10 µM): 6 and 8 and 5 and 3 and 7
